According to PubChem BioAssay AID686966 (The Scripps Research Institute Molecular Screening Center, 2013):
Calls of active or inactive are those of the source. No rule for the calls is given here.

Target: Tyrosine-protein kinase ABL1 (Homo sapiens) + Ras and Rab interactor 1 (Homo sapiens) (UniProt P00519+Q13671)
Experiment: Rin1/ABL1 binding disruption, potency – biochemical, TR-FRET, round 2, late-stage follow-up (AID 686966)
Conditions: TR-FRET Rin1-Abl binding

Sequence of Tyrosine-protein kinase ABL1 (Homo sapiens) + Ras and Rab interactor 1 (Homo sapiens) (P00519 whole entry, looked up): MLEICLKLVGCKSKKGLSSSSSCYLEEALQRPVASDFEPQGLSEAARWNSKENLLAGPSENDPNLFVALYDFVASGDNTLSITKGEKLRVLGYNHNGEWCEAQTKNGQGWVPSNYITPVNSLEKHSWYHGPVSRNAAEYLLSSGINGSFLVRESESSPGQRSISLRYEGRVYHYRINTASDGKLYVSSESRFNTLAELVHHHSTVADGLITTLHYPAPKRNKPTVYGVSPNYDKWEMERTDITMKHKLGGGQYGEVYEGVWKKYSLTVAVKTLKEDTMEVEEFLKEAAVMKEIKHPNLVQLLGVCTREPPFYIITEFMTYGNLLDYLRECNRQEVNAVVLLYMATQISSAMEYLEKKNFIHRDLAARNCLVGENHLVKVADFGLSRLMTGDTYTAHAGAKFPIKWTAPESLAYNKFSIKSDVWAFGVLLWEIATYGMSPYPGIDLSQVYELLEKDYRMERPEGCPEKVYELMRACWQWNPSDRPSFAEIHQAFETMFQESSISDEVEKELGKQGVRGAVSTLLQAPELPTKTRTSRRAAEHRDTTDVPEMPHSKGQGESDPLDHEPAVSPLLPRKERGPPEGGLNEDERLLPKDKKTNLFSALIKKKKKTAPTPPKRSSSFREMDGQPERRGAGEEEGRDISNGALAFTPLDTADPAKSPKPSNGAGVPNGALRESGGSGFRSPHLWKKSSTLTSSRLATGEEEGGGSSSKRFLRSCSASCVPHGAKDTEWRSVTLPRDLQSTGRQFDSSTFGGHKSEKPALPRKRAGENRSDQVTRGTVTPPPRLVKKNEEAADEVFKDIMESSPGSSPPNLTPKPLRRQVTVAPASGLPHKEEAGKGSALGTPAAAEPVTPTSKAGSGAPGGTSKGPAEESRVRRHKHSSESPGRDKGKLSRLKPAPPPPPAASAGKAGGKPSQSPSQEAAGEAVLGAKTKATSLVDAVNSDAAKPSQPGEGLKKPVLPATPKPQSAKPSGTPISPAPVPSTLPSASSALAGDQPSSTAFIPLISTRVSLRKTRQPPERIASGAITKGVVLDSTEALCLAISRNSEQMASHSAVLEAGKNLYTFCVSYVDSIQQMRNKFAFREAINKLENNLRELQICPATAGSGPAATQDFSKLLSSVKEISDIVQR
Sequence of Tyrosine-protein kinase ABL1 (Homo sapiens) + Ras and Rab interactor 1 (Homo sapiens) (Q13671 whole entry, looked up): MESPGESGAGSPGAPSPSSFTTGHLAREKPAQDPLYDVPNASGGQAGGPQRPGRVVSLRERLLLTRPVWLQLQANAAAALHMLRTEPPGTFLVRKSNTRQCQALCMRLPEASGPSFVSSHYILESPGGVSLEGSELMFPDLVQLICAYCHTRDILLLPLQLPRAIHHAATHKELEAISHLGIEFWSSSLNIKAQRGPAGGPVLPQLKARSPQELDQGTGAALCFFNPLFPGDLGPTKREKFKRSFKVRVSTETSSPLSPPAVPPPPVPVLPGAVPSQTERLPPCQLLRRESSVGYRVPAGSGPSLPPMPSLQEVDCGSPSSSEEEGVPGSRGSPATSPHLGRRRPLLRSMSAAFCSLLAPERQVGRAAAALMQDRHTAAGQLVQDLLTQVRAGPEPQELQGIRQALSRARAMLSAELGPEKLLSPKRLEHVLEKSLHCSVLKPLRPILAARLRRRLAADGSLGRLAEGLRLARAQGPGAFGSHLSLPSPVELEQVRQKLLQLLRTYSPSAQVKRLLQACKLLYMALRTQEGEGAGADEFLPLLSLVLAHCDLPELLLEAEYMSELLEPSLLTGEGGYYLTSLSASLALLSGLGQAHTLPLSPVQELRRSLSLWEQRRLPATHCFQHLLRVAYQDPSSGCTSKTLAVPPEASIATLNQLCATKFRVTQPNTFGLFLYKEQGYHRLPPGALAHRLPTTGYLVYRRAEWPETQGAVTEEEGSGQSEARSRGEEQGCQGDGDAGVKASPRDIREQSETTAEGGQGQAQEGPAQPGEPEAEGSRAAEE

| SMILES | IC50 |
| --- | --- |
| COc1ccc(COc2ccnc(OC)c2)cc1 | > 73.5 µM (inactive) |
| Nc1cc(OCc2ccccc2)ccn1 | > 73.5 µM (inactive) |
| COc1cc(OCc2ccccc2)ccn1 | > 73.5 µM (inactive) |
| COc1cc(OCc2ccc(F)cc2)ccn1 | inactive |
| Cn1ccc(OCc2ccccc2)cc1=O | > 73.5 µM (inactive) |
| COc1ccc(COc2ccn(C)c(=O)c2)cc1 | > 73.5 µM (inactive) |

Now from value to compound:

| IC50 | SMILES |
| --- | --- |
| 0.0194 µM | O=c1cc(OCc2ccc(F)cc2)cc[nH]1 |
| inactive | Cn1ccc(OCc2ccc(F)cc2)cc1=O |
| 0.0231 µM | O=c1cc(OCc2ccccc2)cc[nH]1 |
| 0.0398 µM | COc1ccc(COc2cc[nH]c(=O)c2)cc1 |
